Consider four substances from publication PMC4559854 (Proteins, 2009).

Experiment [1] concerns the target PSA (Homo sapiens, UniProt P07288). The experiment in a line: Substrate hydrolysis assay of Abz-peptide spots with purified PSA. The note with it: for hydrolysis / substrate activity (in words): compared with c0. It is filed as biochemical.
For experiment [2], the system named is chymotrypsin. The note with it: selectivity for PSA; cited from earlier work.

PSA, sequence (P07288 25-261): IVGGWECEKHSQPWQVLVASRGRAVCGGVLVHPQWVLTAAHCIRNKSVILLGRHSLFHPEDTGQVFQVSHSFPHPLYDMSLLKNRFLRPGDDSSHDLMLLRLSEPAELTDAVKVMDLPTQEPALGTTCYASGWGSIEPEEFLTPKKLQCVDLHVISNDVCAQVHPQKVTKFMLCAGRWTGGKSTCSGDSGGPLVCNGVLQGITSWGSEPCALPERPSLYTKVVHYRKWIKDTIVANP

As for GSSKPQ [c4], the “hydrolysis / substrate activity (in words)” value in experiment [1] is “almost complete loss of hydrolysis activity”.

In the case of GSAKLQ [c7], the “hydrolysis / substrate activity (in words)” value in experiment [1] was “high activity for PSA hydrolysis”. Also, the “increase in the hydrolysis rate compared to c0” value in experiment [1] (versus c0) stood at 2 fold.

As to HSSKLQ, in experiment [2], the hydrolysis by chymotrypsin entry was “no detectable hydrolysis”.

Regarding GSSKYQ [c3], the “hydrolysis / substrate activity (in words)” value in experiment [1] is “high substrate activity”.
